Measured values as given in patent US10077243B2, “Compounds for treating disorders mediated by metabotropic glutamate receptor 5, and methods of use thereof” (Sunovion Pharmaceuticals Inc., priority 2009, dated 2018).
Read-outs that look alike come from different tables or passages of the source.

Molecular target: T1, human mGluR5 (Homo sapiens, UniProt P41594)
T1 construct: expressed in transfected cells; host or cells: HEK293 cells stably expressing rat GLAST (EAAT1), stably transfected with pcDNAzeo3.1 carrying synthetic human mGluR5 DNA; zeocin-selected single clones
Experiment: In vitro cell-based FLIPR calcium assay for positive modulation of the activation of mGluR5 by glutamate (PAM EC50)
Settings: FLIPR calcium signal, glutamate added at its EC20
Source text: The DNA sequences encoding the structural regions for rat mGluR5 [Abe T, Sugihara H, Nawa H, Shigemoto R, Mizuno N, Nakanishi S (1992) “Molecular characterization of a novel metabotropic glutamate receptor mGluR5 coupled to inositol phosphate/Ca^2+ signal transduction” Journal of Biological Chemistry vol. 267, no. 19, pp. 13361-8] and human mGluR5 [Daggett L P, Sacaan A I, Akong M, Rao S P, Hess S D, Liaw C, Urrutia A, Jachec C, Ellis S B, Dreessen J, Knöpfel T, Landwehrmeyer G B, Testa C M, Young A B, Varney M, Johnson E C, Veliçelebi (1995) “Molecular and functional characterization of recombinant human metabotropic glutamate receptor subtype 5” Neuropharmacology vol. 34, no. […] 53, no. 3, pp. 355-369] was obtained from Dr. Michael Robinson of the Children's Hospital of Philadelphia under a Material Transfer Agreement. The pcDNAzeo3.1 vector DNA, carrying either rat mGluR5 or human mGluR5, was used to transfect a sample of the HEK293/GLAST cells, and single clones that express mGluR5 were isolated from the transfected cells using zeocin selection. Expression of mGluR5 was assessed by measurement of the transient fluorescence signal elicited from HEK293/GLAST/mGluR5 cells by glutamate following the loading of the cells with a calcium-sensitive dye using a FLIPR Tetra (Fluorometric Imaging Plate Reader) (Molecular Devices, Sunnyvale, Calif.) [O'Brien J A, Lemaire W, Chen T B, Chang R S, Jacobson M A, Ha S N, Lindsley C W, Schaffhauser H J, Sur C, Pettibone D J, Conn P J, Williams D L Jr. […] 64, no. 3, pp. 731-740; Assay Guidance Manual Version 5.0, 2008, Eli Lilly and Company and NIH Chemical Genomics Center; available online HEK293/GLAST/mGluR5 cells were grown in Dulbecco's Modified Eagle Medium (DMEM) supplemented with 10% dialyzed fetal bovine serum, 20 millimolar (mM) N-2-hydroxyethylpiperazine-N′-2-ethanesulfonic acid (HEPES), penicillin, streptomycin, 1% GlutaMax™ (Invitrogen) and 50 μg/ml zeocin. Cells were grown in the media to 70-80% confluency at 37° C. under 5% CO2, 95% humidity in poly-D-lysine coated coated flasks. Cells for assays were plated into 96-well sterile standard microtiter plates (pre-coated with poly-D-lysine) at a density of 50,000 cells per well in 0.2 milliliters of media. Plated cells were allowed to settle and adhere for 30 minutes at ambient conditions, and then were incubated overnight at 37° C. under 5% CO2, 95% humidity. Several such 96-well plates were typically prepared. On the day of the assays, the components of the FLIPR calcium 4 assay kit (Molecular Devices) were dissolved according to the instructions of the dye kit's manufacturer in assay buffer (Hank's balanced salt solution (HBSS) (Gibco) supplemented with 20 mM HEPES). After removal of the growth media from the first plate, cells were loaded with calcium dye by addition of calcium dye solution (50 microliters per well) and incubation at 25° C. for 45 to 60 minutes. The first plate was placed into the FLIPR Tetra, and a dilution series of glutamate solutions in assay buffer were added to wells on the plate, followed by acquisition of fluorescence data for several minutes. The fluorescence data (maximal signal as a 4-parameter sigmoidal function of log [glutamate]) were processed by non-linear regression methods using the software package GraphPad Prism 5.01 (GraphPad Software Inc.), to yield a glutamate concentration-response curve (CRC). […] These values were, respectively, the concentrations of glutamate that elicit 20%, 50%, and 80% of the maximal FLIPR signal (observed at saturating [glutamate]). The method for measuring the concentration response of a potentiator, or positive allosteric modulator (PAM), is described here as an example. For that purpose, subsequent assays were typically performed using assay buffer containing a glutamate concentration equal to that day's EC20. […] Addition to certain wells of the same buffer containing 0.3% DMSO, but without any test compound, provided a negative control.

[1] = HEK293/GLAST cells expressing recombinant human mGluR5, read-out: mGluR5 PAM EC50

T1 sequence (P41594 21-1212): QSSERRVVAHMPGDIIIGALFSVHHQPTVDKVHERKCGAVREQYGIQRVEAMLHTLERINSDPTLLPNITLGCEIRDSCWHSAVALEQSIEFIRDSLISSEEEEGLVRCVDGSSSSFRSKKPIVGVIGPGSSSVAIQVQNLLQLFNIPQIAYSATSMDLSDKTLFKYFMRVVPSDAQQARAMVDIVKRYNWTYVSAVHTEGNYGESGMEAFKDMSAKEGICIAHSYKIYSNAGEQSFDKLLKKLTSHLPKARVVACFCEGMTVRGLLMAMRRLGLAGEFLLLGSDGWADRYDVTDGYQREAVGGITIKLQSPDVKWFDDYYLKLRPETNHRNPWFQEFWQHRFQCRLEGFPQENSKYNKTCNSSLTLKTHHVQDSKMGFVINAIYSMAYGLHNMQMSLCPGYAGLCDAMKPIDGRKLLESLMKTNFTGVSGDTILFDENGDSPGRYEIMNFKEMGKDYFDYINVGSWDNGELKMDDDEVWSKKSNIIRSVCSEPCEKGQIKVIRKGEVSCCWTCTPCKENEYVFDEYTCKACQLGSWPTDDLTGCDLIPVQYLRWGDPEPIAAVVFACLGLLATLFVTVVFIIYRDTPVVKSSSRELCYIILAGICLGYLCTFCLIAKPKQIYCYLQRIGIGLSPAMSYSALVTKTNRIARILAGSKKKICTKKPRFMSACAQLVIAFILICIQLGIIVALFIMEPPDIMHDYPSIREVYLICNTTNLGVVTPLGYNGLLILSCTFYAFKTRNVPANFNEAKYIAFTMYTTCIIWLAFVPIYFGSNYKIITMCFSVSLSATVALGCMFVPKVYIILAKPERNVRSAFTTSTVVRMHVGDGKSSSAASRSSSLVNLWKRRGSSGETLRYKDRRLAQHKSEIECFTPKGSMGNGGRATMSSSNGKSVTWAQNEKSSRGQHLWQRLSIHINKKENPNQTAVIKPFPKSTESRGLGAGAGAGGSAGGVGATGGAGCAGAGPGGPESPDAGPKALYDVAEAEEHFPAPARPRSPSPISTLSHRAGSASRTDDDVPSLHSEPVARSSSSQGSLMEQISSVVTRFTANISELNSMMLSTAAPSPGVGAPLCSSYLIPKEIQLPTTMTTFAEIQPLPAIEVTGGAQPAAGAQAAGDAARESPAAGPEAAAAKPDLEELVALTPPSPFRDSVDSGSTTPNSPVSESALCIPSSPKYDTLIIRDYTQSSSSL

Row | SMILES | EC50 [1] | EC50 (mGluR5 PAM EC50, HEK293/GLAST cells expressing recombinant human mGluR5)
1 | CCc1ccc(C#Cc2ccc3c(=O)n4c(nc3c2)CCCCC4)cc1 [Example 6.3, 3-((4-ethylphenyl)ethynyl)-7,8,9,10-tetrahydroazepino[2,1-b]quinazolin-12(6H)-one] | 100 to 300 nM | –
2 | Fc1ccc(C#Cc2ccc3c(c2)N=C2CCCCCN2C3)cc1 [Example 19.1, 3-((4-fluorophenyl)ethynyl)-6,7,8,9,10,12-hexahydroazepino[2,1-b]quinazoline] | 30 to 100 nM | –
3 | CCCC1CCc2nc3cc(C#Cc4ccc(F)cc4)ccc3c(=O)n2CC1 (centres unmarked) [Example 6.13, 3-((4-fluorophenyl)ethynyl)-8-propyl-7,8,9,10-tetrahydroazepino[2,1-b]quinazolin-12(6H)-one] | 30 to 100 nM | –
4 | CC1(O)CCc2nc3cc(C#Cc4ccccn4)ccc3c(=O)n2CC1 (centres unmarked) [Example 6.49, 8-hydroxy-8-methyl-3-(pyridin-2-ylethynyl)-7,8,9,10-tetrahydroazepino[2,1-b]quinazolin-12(6H)-one] | 100 to 300 nM | –
5 | CC1(C)CCc2nc3cc(C#Cc4ccccn4)ccn3c(=O)c2C1 [Example 15.4, 2,2-dimethyl-7-(pyridin-2-ylethynyl)-3,4-dihydro-1H-Pyrido[2,1-b]quinazolin-11(2H)-one] | – | < 10 nM
6 | CC1(C)CCn2c(nc3cc(CCc4ccccn4)ccc3c2=O)C1 [Example 21.6, 7,7-dimethyl-3-(2-(pyridin-2-yl)ethyl)-8,9-dihydro-6H-pyrido[2,1-b]quinazolin-11(7H)-one] | 300 to 1000 nM | –
7 | O=c1c2ccc(C#Cc3cccnc3)cc2nc2n1CC1CCCN1C2 (centres unmarked) [Example 5.24, 8-(pyridin-3-ylethynyl)-2,3,13,13a-tetrahydro-1H-pyrrolo[1′,2′:4,5]pyrazino[2,1-b]quinazolin-11(5H)-one] | 30 to 100 nM | –
8 | O=c1c2ccc(C#Cc3ccccc3F)cc2nc2n1CCC1(CC2)OCCO1 [Example 7.2] | 30 to 100 nM | –
9 | O=c1c2ccc(C#Cc3cccc(F)c3)cc2nc2n1CCN(Cc1ccccc1)C2 [Example 5.10, 2-benzyl-9-((3-fluorophenyl)ethynyl)-3,4-dihydro-1H-pyrazino[2,1-b]quinazolin-6(2H)-one] | 300 to 1000 nM | –
10 | O=c1c2ccc(C#Cc3ccccn3)nc2nc2n1CCCCC2 [Example 12.5, 2-(pyridin-2-ylethynyl)-8,9,10,11-tetrahydropyrido[2′,3′:4,5]pyrimido[1,2-a]azepin-5(7H)-one] | 300 to 1000 nM | –
11 | CC(c1nc2cc(C#Cc3ccccn3)ccc2c(=O)n1C)N(C)C (centres unmarked) [Example 2.21, 2-(1-(dimethylamino)ethyl)-3-methyl-7-(pyridin-2-ylethynyl)quinazolin-4(3H)-one] | 100 to 300 nM | –
12 | CC1Cc2nc3cc(C#Cc4ccccn4)ccc3c(=O)n2C1 (single isomer, unassigned) [3.12/3.13 faster moving enantiomer (fraction 1), 2-methyl-6-(pyridin-2-ylethynyl)-2,3-dihydropyrrolo[2,1-b]quinazolin-9(1H)-one] | 30 to 100 nM | –
13 | Cc1cnc(NC(=O)c2ccc3c(=O)n4c(nc3c2)CCC(C)CC4)s1 (centres unmarked) [Example 23.1, 8-methyl-N-(5-methylthiazol-2-yl)-12-oxo-6,7,8,9,10,12-hexahydroazepino[2,1-b]quinazoline-3-carboxamide] | 100 to 300 nM | –
14 | Cc1cc(F)ccc1C#Cc1ccc2c(=O)n3c(nc2c1)CCC1(CC3)OCCO1 [Example 7.6] | 300 to 1000 nM | –
15 | CC1CCCc2nc3cc(C#Cc4ccccn4)ccc3c(=O)n21 (centres unmarked) [Example 4.18, 9-methyl-3-(pyridin-2-ylethynyl)-8,9-dihydro-6H-pyrido[2,1-b]quinazolin-11(7H)-one] | 10 to 30 nM | –
16 | CN1CCn2c(nc3cc(C#Cc4ccc(F)cc4)ccc3c2=O)C1 [Example 5.3, 9-((4-fluorophenyl)ethynyl)-2-methyl-3,4-dihydro-1H-pyrazino[2,1-b]quinazolin-6(2H)-one] | 10 to 30 nM | –
17 | CN1CCc2nc3cc(C#Cc4ccc(F)cc4)ccc3c(=O)n2CC1 [Example 8.1, 8-((4-fluorophenyl)ethynyl)-3-methyl-2,3,4,5-tetrahydro-[1,4]diazepino[7,1-b]quinazolin-11(1H)-one] | 100 to 300 nM | –

Further lines, with some results ahead:

Row | EC50 [1] | SMILES | EC50 (mGluR5 PAM EC50, HEK293/GLAST cells expressing recombinant human mGluR5)
18 | 10 to 30 nM | O=C1CCc2nc3cc(C#Cc4cccc(F)c4)ccc3c(=O)n2CC1 [Example 6.14, 3-((3-fluorophenyl)ethynyl)-6,7,9,10-tetrahydroazepino[2,1-b]quinazoline-8,12-dione] | –
19 | < 10 nM | C=C1CCc2nc3cc(C#Cc4cccc(F)c4)ccc3c(=O)n2CC1 [Example 6.22, 3-((3-fluorophenyl)ethynyl)-8-methylene-7,8,9,10-tetrahydroazepino[2,1-b]quinazolin-12(6H)-one] | –
20 | 10 to 30 nM | C=CCC1CCCCc2nc3cc(C#Cc4ccc(F)cc4)ccc3c(=O)n21 (centres unmarked) [Example 6.33, 10-allyl-3-((4-fluorophenyl)ethynyl)-7,8,9,10-tetrahydroazepino[2,1-b]quinazolin-12(6H)-one] | –
21 | 10 to 30 nM | C=CCC1CCCn2c1nc1cc(C#Cc3cccc(F)c3)ccc1c2=O (centres unmarked) [Example 4.7, 6-allyl-3-((3-fluorophenyl)ethynyl)-8,9-dihydro-6H-pyrido[2,1-b]quinazolin-11(7H)-one] | –
22 | 10 to 30 nM | Cc1cnc(NC(=O)c2ccc3c(=O)n4c(nc3c2)C(C)CCCCC4)s1 (centres unmarked) [Example 25.3, 6-methyl-N-(5-methylthiazol-2-yl)-13-oxo-7,8,9,10,11,13-hexahydro-6H-azocino[2,1-b]quinazoline-3-carboxamide] | –
23 | < 10 nM | O=c1c2ccc(C#Cc3cccc(F)c3)cc2nc2n1CC1CCCN1C2 (centres unmarked) [Example 5.21, 8-((3-fluorophenyl)ethynyl)-2,3,13,13a-tetrahydro-1H-pyrrolo[1′,2′:4,5]pyrazino[2,1-b]quinazolin-11(5H)-one] | –
24 | 10 to 30 nM | CCNC(=O)c1cnc2cc(C#Cc3cccc(F)c3)ccn2c1=O [Example 13.5, N-ethyl-8-((3-fluorophenyl)ethynyl)-4-oxo-4H-pyrido[1,2-a]pyrimidine-3-carboxamide] | –
25 | < 10 nM | COC1CCc2nc3cc(C#Cc4cccc(F)c4)ccc3c(=O)n2C1 (centres unmarked) [Example 4.25, 3-((3-fluorophenyl)ethynyl)-8-methoxy-8,9-dihydro-6H-pyrido[2,1-b]quinazolin-11(7H)-one] | –
26 | < 10 nM | CC1(C)Cn2c(nc3cc(C#Cc4ccccn4)ccc3c2=O)C(F)(F)C1 [Example 4.44, 6,6-difluoro-8,8-dimethyl-3-(pyridin-2-ylethynyl)-8,9-dihydro-6H-pyrido[2,1-b]quinazolin-11(7H)-one] | –
27 | < 10 nM | CC1CCn2c(nc3cc(C#Cc4cccc(F)c4)ccc3c2=O)C1 (centres unmarked) [Example 4.10, 3-((3-fluorophenyl)ethynyl)-7-methyl-8,9-dihydro-6H-pyrido[2,1-b]quinazolin-11(7H)-one] | –
28 | < 10 nM | COCC1CCc2nc3cc(C#Cc4cccc(F)c4)ccc3c(=O)n21 (centres unmarked) [Example 3.6, 6-((3-fluorophenyl)ethynyl)-1-(methoxymethyl)-2,3-dihydropyrrolo[2,1-b]quinazolin-9(1H)-one] | –
29 | < 10 nM | CC1(C)CCn2c(nc3cc(C#Cc4ccccn4)ccc3c2=O)C1 [Example 4.15, 7,7-dimethyl-3-(pyridin-2-ylethynyl)-8,9-dihydro-6H-pyrido[2,1-b]quinazolin-11(7H)-one] | –
